Values quoted from earlier work in patent US20030149010A1, “Combination of an aldosterone receptor antagonist and an HMG CoA reductase inhibitor” (priority 2001, published 2003).

Key:
[1] = test system: patients with severe heart failure; conditions: spironolactone added to ACE inhibitor therapy; 1663 patients with severe heart failure
[2] = test system: patients afflicted with congestive heart failure; conditions: coadministered with an ACE inhibitor

In the case of CC(=O)S[C@@H]1CC2=CC(=O)CC[C@]2(C)[C@H]2CC[C@@]3(C)[C@@H](CC[C@@]34CCC(=O)O4)[C@H]12 [spironolactone, 17-hydroxy-7α-mercapto-3-oxo-17α-pregn-4-ene-21-carboxylic acid γ-lactone acetate], the reduction in hospitalizations [1] is listed as 35%, the reduction in mortality [1] is listed as 30% and the “effectiveness in congestive heart failure” value [2] is listed as “highly effective in 13 of 16 patients”.
